Measured values reported in US10722518B2, “Oxazine derivative for use in the treatment or prevention of cerebral amyloid angiopathy” (Novartis AG, priority 2016, dated 2020).

Test system: amyloid-beta in CD31-positive vessels
Experiment: Assessment of CAA in APP23 mice by CD31/NT12 double fluorescence immunohistochemistry and image analysis
Format: in vivo, mouse
Description: Amyloid plaques were stained using a rabbit anti-Aβ primary antibody (NT12) which recognizes the C-terminal part of the amyloid peptide (the antibody was raised as described in Schrader-Fischer G and Paganetti P A, 1996, and Schrader-Fischer G et al., 1997). The vascular endothelial cells were detected using a rat anti-CD31 antibody (reference DIA310) from Dianova GmbH (Hamburg, Germany). All stainings were performed using the fully automated instrument Ventana Discovery® Ultra (Roche Diagnostics Schweiz AG, Rotkreuz, Switzerland). All chemicals were provided by Roche Diagnostic.
All study animals were used and brain tissue sections of 3 micrometers were freshly cut and collected on SuperFrost+ slides. The tissues sections were de-paraffinized and rehydrated under solvent-free conditions (EZprep solution) followed by antigen retrieval (demasking) performed by heat retrieval cycles for 32 min in a EDTA based buffer (CC1 solution). Subsequently, slides were blocked for 4 min using the DISCOVERY Inhibitor (reference 07017944001 (Roche)). The primary antibody diluted at 1/10′000 in antibody diluent was manually added on tissue sections and incubated for 1 h at room temperature. A short post-fixation (glutaraldehyde at 0.05%) was performed before applying the multimer UltraMap-anti Rabbit HRP ready to use antibody (reference 05269717001) for 16 min.
Detection was performed using the DISCOVERY FITC® following the manufacturer's recommendations. Slides were then heat denaturated at 92° C. for 20 min before a manual application of the second primary antibody (rat anti-CD31 diluted at 1/1′000 in antibody diluent) and incubated for 1 h. Multimer UltraMap-anti-Rat HRP antibody (reference 05891884001) was used for 20 min to detect CD31 in combination with the DISCOVERY Rhodamine kit (reference 07259883001).
The slides were washed and mounted using Prolong® Gold antifade reagent (reference P36931, ThermoFisher, Switzerland) and further scanned with the Hamamatsu slide scanner instrument (NanoZoomer 2.0 HT, scanning software NDP-Scan Vers. 2.5, Hamamatsu Photonics France, Swiss Office, Solothurn, Switzerland) at the 40× objective. The scanning settings were as follows: the exposure time with the DAPI filter was set at 28.5 ms as well as for the FITC filter and TRITC filter (detection of Rhodamine).
For the quantitative plaque and vessel-associated amyloid-beta evaluation based on image analysis, a proprietary image analysis platform (ASTORIA, Automated Stored Image Analysis) was developed based on MS Visual Studio 2010 and many functions from Matrox MIL V9 libraries (Matrox Inc, Quebec, Canada).
For the beta-amyloid plaque and vessel analysis, the following sequence of steps was performed: • Slides were scanned with Hamamatsu Nanozoomer at 40× magnification. […]

[1] = 0.3 g/kg food, 6 months, all CD31+ vessels
[2] = 0.3 g/kg food, 6 months, large CD31-positive vessels
[3] = 0.3 g/kg vs vehicle, all CD31+ vessels
[4] = 0.3 g/kg vs vehicle, large vessels
[5] = 0.3 g/kg vs vehicle, small + medium vessels

C[C@@]1(c2nc(NC(=O)c3ncc(C(F)(F)F)cc3Cl)ccc2F)CO[C@@](C)(C(F)(F)F)C(N)=N1 [Compound 1, N-(6-((3R,6R)-5-amino-3,6-dimethyl-6-(trifluoromethyl)-3,6-dihydro-2H-1,4-oxazin-3-yl)-5-fluoropyridin-2-yl)-3-chloro-5-(trifluoromethyl)picolinamide]
% of large vessels with 0% Aβ (0.3 g/kg food, 6 months): 10.3 ± 1.56% | % of large vessels with 1-10% Aβ (0.3 g/kg food, 6 months): 21.6 ± 2.31% | % of large vessels with 10-25% Aβ (0.3 g/kg food, 6 months): 9.48 ± 1.85% | % of large vessels with 25-50% Aβ (0.3 g/kg food, 6 months): 20.6 ± 3.66% | % of large vessels with 50-75% Aβ (0.3 g/kg food, 6 months): 28.8 ± 3.3% | % of large vessels with >10% Aβ (0.3 g/kg food, 6 months): 68.1 ± 3.03% | % of large vessels with >75% Aβ (0.3 g/kg food, 6 months): 9.27 ± 2.77% | % of small + medium vessels with 0% Aβ (0.3 g/kg food, 6 months): 80.2 ± 1.61% | % of small + medium vessels with 1-10% Aβ (0.3 g/kg food, 6 months): 10.8 ± 1.12% | % of small + medium vessels with 10-25% Aβ (0.3 g/kg food, 6 months): 2.75 ± 0.20% | % of small + medium vessels with 25-50% Aβ (0.3 g/kg food, 6 months): 2.38 ± 0.25% | % of small + medium vessels with 50-75% Aβ (0.3 g/kg food, 6 months): 1.73 ± 0.21% | % of small + medium vessels with >10% Aβ (0.3 g/kg food, 6 months): 8.95 ± 0.8% | % of small + medium vessels with >75% Aβ (0.3 g/kg food, 6 months): 2.07 ± 0.33% | CAA Frequency (number small + medium vessels with >10% Aβ normalized to sample area, *10^7) (0.3 g/kg food, 6 months): 56 ± 6.1 | Number of large CD31+ vessels (normalized to total CD31 positive vessel numbers in %) (0.3 g/kg food, 6 months): 1.49 ± 0.12% | Number of small + medium CD31+ vessels (normalized to total CD31 positive small + medium vessel numbers in %) (0.3 g/kg food, 6 months): 98.5 ± 0.12% | Number small + medium vessels with >10% Aβ, mean ± SEM (0.3 g/kg food, 6 months): 195 ± 21.9 | Total number CD31+ vessels (normalized to total sample area, *10^5), mean ± SEM (0.3 g/kg food, 6 months): 6.46 ± 0.37 | Total vessel-associated NT12 area (normalized to total small + medium CD31+ vessel area) (0.3 g/kg food, 6 months): 0.194 ± 0.0201 | % of vessels with 0% Aβ [1]: 79.2 ± 1.63% | % of vessels with 1-10% Aβ [1]: 11 ± 1.1% | % of vessels with 10-25% Aβ [1]: 2.87 ± 0.21% | % of vessels with 25-50% Aβ [1]: 2.65 ± 0.25% | % of vessels with 50-75% Aβ [1]: 2.12 ± 0.24% | % of vessels with >10% Aβ [1]: 9.82 ± 0.85% | % of vessels with >75% Aβ [1]: 2.19 ± 0.36% | CAA Frequency (number vessels with >10% Aβ normalized to sample area, *10^7) [1]: 70 ± 7.6 | Number vessels with >10% Aβ, mean ± SEM [1]: 217 ± 23.6 | Total vessel-associated NT12 area (normalized to total CD31+ area) [1]: 0.47 ± 0.04 | CAA Frequency (number vessels with >10% Aβ normalized to sample area, *10^7) [2]: 6.5 ± 0.6 | Number vessels with >10% Aβ, mean ± SEM [2]: 22 ± 2.2 | Total vessel-associated NT12 area (normalized to total CD31+ area) [2]: 0.77 ± 0.04 | % of large vessels with 0% Aβ, treatment effect vs vehicle (0.3 g/kg vs vehicle): −8% | % of large vessels with 1-10% Aβ, treatment effect vs vehicle (0.3 g/kg vs vehicle): +48% | % of large vessels with 10-25% Aβ, treatment effect vs vehicle (0.3 g/kg vs vehicle): +35% | % of large vessels with 25-50% Aβ, treatment effect vs vehicle (0.3 g/kg vs vehicle): +7% | % of large vessels with 50-75% Aβ, treatment effect vs vehicle (0.3 g/kg vs vehicle): −12% | % of large vessels with >10% Aβ, treatment effect vs vehicle (0.3 g/kg vs vehicle): −8% | % of large vessels with >75% Aβ, treatment effect vs vehicle (0.3 g/kg vs vehicle): −36% | % of small + medium vessels with 0% Aβ, treatment effect vs vehicle (0.3 g/kg vs vehicle): +9% | % of small + medium vessels with 1-10% Aβ, treatment effect vs vehicle (0.3 g/kg vs vehicle): −15% | % of small + medium vessels with 10-25% Aβ, treatment effect vs vehicle (0.3 g/kg vs vehicle): −35% | % of small + medium vessels with 25-50% Aβ, treatment effect vs vehicle (0.3 g/kg vs vehicle): −39% | % of small + medium vessels with 50-75% Aβ, treatment effect vs vehicle (0.3 g/kg vs vehicle): −35% | % of small + medium vessels with >10% Aβ, treatment effect vs vehicle (0.3 g/kg vs vehicle): −36% | % of small + medium vessels with >75% Aβ, treatment effect vs vehicle (0.3 g/kg vs vehicle): −34% | Total small + medium vessel-associated NT12 area (normalized to total CD31+ small + medium vessel area), treatment effect vs vehicle (0.3 g/kg vs vehicle): −28% p < 0.05 | % of vessels with 0% Aβ, treatment effect vs vehicle [3]: +9% | % of vessels with 1-10% Aβ, treatment effect vs vehicle [3]: −13% | % of vessels with 10-25% Aβ, treatment effect vs vehicle [3]: −32% | % of vessels with 25-50% Aβ, treatment effect vs vehicle [3]: 36% | % of vessels with 50-75% Aβ, treatment effect vs vehicle [3]: −33% | % of vessels with >10% Aβ, treatment effect vs vehicle [3]: −34% | % of vessels with >75% Aβ, treatment effect vs vehicle [3]: −34% | CAA Frequency, treatment effect vs vehicle [3]: −29% p < 0.05 | Number vessels with >10% Aβ, treatment effect vs vehicle [3]: −39% p < 0.001 | Total vessel-associated NT12 area (normalized to total CD31+ area), treatment effect vs vehicle [3]: −19% n.s. | CAA Frequency, treatment effect vs vehicle [4]: −17% n.s. | Number vessels with >10% Aβ, treatment effect vs vehicle [4]: −21% n.s. | Total vessel-associated NT12 area (normalized to total CD31+ area), treatment effect vs vehicle [4]: −4% n.s. | CAA Frequency, treatment effect vs vehicle [5]: −37% p < 0.005 | Number vessels with >10% Aβ, treatment effect vs vehicle [5]: −40% p < 0.001
